How the values were obtained:
Format in all cases: cell-based
[1] = system: human cervical tumor cell line HeLa (ATCC CCL-2); test: SAC-Formation - Nocodazole-Induced Assay; conditions: Homo sapiens, HeLa, 24 h, HeLa cells, nocodazole 0.1 μg/ml together with test compound, decrease of mitotic cells (phospho-histone H3 Ser10)
Description: (§1) The spindle assembly checkpoint assures the proper segregation of chromosomes during mitosis. Upon entry into mitosis, chromosomes begin to condensate which is accompanied by the phosphorylation of histone H3 on serine 10. Dephosphorylation of histone H3 on serine 10 begins in anaphase and ends at early telophase. Accordingly, phosphorylation of histone H3 on serine 10 can be utilized as a marker of cells in mitosis. Nocodazole is a microtubule destabilizing substance. Paclitaxel is a microtubule stabilizing compound. Thus, nocodazole as well as paclitaxel interfere with microtubule dynamics and mobilize the spindle assembly checkpoint. […] The mitotic breakthrough can be detected by the decrease of cells with phosphorylation of histone H3 on serine 10. This decline is used as a marker to determine the capability of compounds of the present invention to induce a mitotic breakthrough. The typical morphological alteration of nuclei with a prematurely completed mitosis after SAC-inhibition can be monitored via image analysis routines supporting those findings.
(§2) The nocodazole and paclitaxel variations were used to focus on compounds that are capable of inhibiting a SAC induced by both microtubule destabilization as well as microtubule stabilization. When SAC inducing agents and compounds are given simultaneously inhibitors that effectively block the SAC during formation or abrogation are identified. When cells are incubated with a SAC inducing agent and the SAC interfering compound is given after a defined time, inhibitors are identified that effectively block SAC abrogation.
(§3) Cultivated cells of the human cervical tumor cell line HeLa (ATCC CCL-2) were plated at a density of 1000 cells/well in a 1536-well microtiter plate in 2 μl PAA Ham's F12 Medium supplemented with 1% (v/v) glutamine, 1% (v/v) penicillin, 1% (v/v) streptomycin and 10% (v/v) fetal calf serum. After incubation overnight at 37° C., 10 μl/well nocodazole at a final concentration of 0.1 μg/ml were added to cells. Test compounds solubilized in dimethyl sulfoxide (DMSO) were added at various concentrations (0 μM, as well as in the range of 0.005 μM-20 μM; the final concentration of the solvent DMSO was 0.5% (v/v)). Cells were incubated for 24 h at 37° C. in the presence of test compounds in combination with nocodazole. Thereafter, cells were fixed in 4% (v/v) paraformaldehyde in phosphate buffered saline (PBS) at 4° C. overnight then permeabilized in 0.1% (v/v) Triton X™ 100 in PBS at room temperature for 20 min and blocked in 0.5% (v/v) bovine serum albumin (BSA) in PBS at room temperature for 15 min. After washing with PBS, 5 μl/well antibody solution (anti-phospho-histone H3 clone 3H10, FITC; Millipore, Cat#16-222; 1:1000 dilution) was added to cells, which were incubated for 2 h at room temperature. Afterwards, cells were washed with PBS and 5 μl/well solution of HOECHST 33342 dye (5 μg/ml) was added to cells and cells were incubated 15 min at room temperature in the dark. Cells were washed twice with PBS then covered with PBS and stored at 4° C. until analysis. Images were acquired with a PERKIN ELMER OPERA™ High-Content Analysis reader. Images were analyzed with image analysis software MetaXpress™ from Molecular devices utilizing the Mitotic Index application module. In this assay both labels HOECHST 33342 and phosphorylated Histone H3 on serine 10 were measured. HOECHST 33342 labels the DNA and is used to count the cell number. The staining of phosphorylated Histone H3 on serine 10 determines the number of mitotic cells. […] Otherwise cells were arrested at G2/M phase of the cell cycle progression. The raw assay data were further analyzed by four-parametric hill equation using Genedata's Assay Analyzer and Condoseo software.

[2] = system: human cervical tumor cell line HeLa (ATCC CCL-2); test: SAC-Formation - Paclitaxel-Induced Assay; conditions: Homo sapiens, HeLa, 24 h, HeLa cells, paclitaxel 0.05 μM, test range 0.005 μM-20 μM, read-out: IC50 [mol/l] SAC-Formation - Paclitaxel-Induced Assay
Description: as §1, §2
Cultivated cells of the human cervical tumor cell line HeLa (ATCC CCL-2) were plated at a density of 1000 cells/well in a 1536-well microtiter plate in 2 μl PAA
as §3, with “Ham's” for “Cultivated cells of the human cervical tumor cell line HeLa (ATCC CCL-2) were plated at a density of 1000 cells/well in a 1536-well microtiter plate in 2 μl PAA Ham's”, “paclitaxel” for “nocodazole”, “0.05 μM” for “0.1 μg/ml”, “μM -20” for “μM-20”, “paclitaxel.” for “nocodazole.”

HeLa = test: Proliferation assay (crystal violet), HeLa; conditions: Homo sapiens, HeLa, 96 h, HeLa cells; 4 days incubation; crystal violet staining; read-out: IC50 inhibition of proliferation, HeLa
Method: Cultivated tumor cells (cells were ordered from ATCC, except HeLa-MaTu and HeLa-MaTu-ADR, which were ordered from EPO-GmbH, Berlin) were plated at a density of 1000 to 5000 cells/well, depending on the growth rate of the respective cell line, in a 96-well multititer plate in 200 μL of their respective growth medium supplemented 10% fetal calf serum. After 24 hours, the cells of one plate (zero-point plate) were stained with crystal violet (see below), while the medium of the other plates was replaced by fresh culture medium (200 μl), to which the test substances were added in various concentrations (0 μM, as well as in the range of 0.001-10 μM; the final concentration of the solvent dimethyl sulfoxide was 0.5%). The cells were incubated for 4 days in the presence of test substances. Cell proliferation was determined by staining the cells with crystal violet: the cells were fixed by adding 20 μl/measuring point of an 11% glutaric aldehyde solution for 15 minutes at room temperature. After three washing cycles of the fixed cells with water, the plates were dried at room temperature. The cells were stained by adding 100 μl/measuring point of a 0.1% crystal violet solution (pH 3.0). After three washing cycles of the stained cells with water, the plates were dried at room temperature. The dye was dissolved by adding 100 μl/measuring point of a 10% acetic acid solution. Absorbtion was determined by photometry at a wavelength of 595 nm. The change of cell number, in percent, was calculated by normalization of the measured values to the aborbtion values of the zero-point plate (=0%) and the absorbtion of the untreated (0 μm) cells (=100%). The IC50 values were determined by means of a 4 parameter fit.

IC50 [1] [µM]	IC50 [2] [µM]	IC50 (HeLa) [µM]	Structure (SMILES)
3	7.3	10	Cc1nsc(Nc2cnc3ccccc3n2)c1C(=O)Nc1cccc(C(=O)N(C)CCN(C)C)c1 [Example 58, N-(3-{[2-(Dimethylamino)ethyl](methyl)carbamoyl}phenyl)-3-methyl-5-(quinoxalin-2-ylamino)-1,2-thiazole-4-carboxamide]
0.71	2.7	9.9	Cc1nsc(Nc2cnc3ccccc3n2)c1C(=O)Nc1cccc(C(=O)N2CCN(Cc3ccc(F)cc3)CC2)c1 [Example 93, N-(3-{[4-(4-Fluorobenzyl)piperazin-1-yl]carbonyl}phenyl)-3-methyl-5-(quinoxalin-2-ylamino)-1,2-thiazole-4-carboxamide]
0.9	3.7	10	Cc1nsc(Nc2cnc3ccccc3n2)c1C(=O)Nc1cccc(C(=O)N2CCN(c3cnccn3)CC2)c1 [Example 79, 3-Methyl-N-(3-{[4-(pyrazin-2-yl)piperazin-1-yl]carbonyl}-phenyl)-5-(quinoxalin-2-ylamino)-1,2-thiazole-4-carboxamide]
3.7	14	10	Cc1nsc(Nc2cnc3ccccc3n2)c1C(=O)Nc1cccc(C(=O)N(C)CCc2ccncc2)c1 [Example 82, 3-Methyl-N-(3-{methyl[2-(pyridin-4-yl)ethyl]carbamoyl}-phenyl)-5-(quinoxalin-2-ylamino)-1,2-thiazole-4-carboxamide]
3.2	13	10	CC(=O)N[C@H]1CCN(C(=O)c2cccc(NC(=O)c3c(C)nsc3Nc3cnc4ccccc4n3)c2)C1 [Example 86, N-(3-{[(3S)-3-(acetylamino)pyrrolidin-1-yl]carbonyl}-phenyl)-3-methyl-5-(quinoxalin-2-ylamino)-1,2-thiazole-4-carboxamide]
12	20	> 10	Cc1nsc(Nc2cnc3ccccc3n2)c1C(=O)Nc1cccc(N)c1 [Example 450, N-(3-Aminophenyl)-3-methyl-5-(quinoxalin-2-ylamino)-1,2-thiazole-4-carboxamide]
0.79	17	10	Cc1nsc(Nc2cnc3ccccc3n2)c1C(=O)Nc1cccc(C(=O)N2CCN(CCN(C)C)CC2)c1 [Example 90, N-[3-({4-[2-(Dimethylamino)ethyl]piperazin-1-yl}carbonyl)-phenyl]-3-methyl-5-(quinoxalin-2-ylamino)-1,2-thiazole-4-carboxamide]
0.018	0.97	8.9	COCCCNC(=O)c1cccc(NC(=O)c2c(C)nsc2Nc2cnc3ccccc3n2)c1 [Example 85, N-{3-[(3-Methoxypropyl)carbamoyl]phenyl}-3-methyl-5-(quinoxalin-2-ylamino)-1,2-thiazole-4-carboxamide]
0.031	0.48	10	Cc1nsc(Nc2cnc3ccccc3n2)c1C(=O)Nc1cccc(C(=O)N2CCN(C(=O)c3ccccc3)CC2)c1 [Example 88, N-{3-[(4-Benzoylpiperazin-1-yl)carbonyl]phenyl}-3-methyl-5-(quinoxalin-2-ylamino)-1,2-thiazole-4-carboxamide]
10	11	10	Cc1nsc(Nc2cnc3ccccc3n2)c1C(=O)Nc1cccc(C(=O)NCCCN2CCCC2)c1 [Example 81, 3-Methyl-N-(3-{[3-(pyrrolidin-1-yl)propyl]carbamoyl}-phenyl)-5-(quinoxalin-2-ylamino)-1,2-thiazole-4-carboxamide]
2.2	10	10	COc1cc(NC(=O)c2cccc(NC(=O)c3c(C)nsc3Nc3cnc4ccccc4n3)c2)cc(OC)c1OC [Example 77, 3-Methyl-5-(quinoxalin-2-ylamino)-N-{3-[(3,4,5-trimethoxy-phenyl)carbamoyl]phenyl}-1,2-thiazole-4-carboxamide]
5	18	10	COC(=O)CN(C)C(=O)c1cccc(NC(=O)c2c(C)nsc2Nc2cnc3ccccc3n2)c1 [Example 76, Methyl N-methyl-N-[3-({[3-methyl-5-(quinoxalin-2-ylamino)-1,2-thiazol-4-yl]carbonyl}amino)benzoyl]-glycinate]
0.068	10	10	Cc1nsc(Nc2cnc3ccccc3n2)c1C(=O)Nc1cccc(C(=O)NCCCN2CCOCC2)c1 [Example 95, 3-Methyl-N-(3-{[3-(morpholin-4-yl)propyl]carbamoyl}-phenyl)-5-(quinoxalin-2-ylamino)-1,2-thiazole-4-carboxamide]
